Source: patent US10717746B2, “Chemical compounds” (ASTRAZENECA AB, priority 2015, dated 2020)

Assays:
CDK9/CycT1 [1] = biological target: T1, CDK9/CycT1 (Homo sapiens (Human), UniProt P50750); experiment: CDK9 kinase assay, ATP concentration at Km (mobility shift, Caliper LC3000); type: biochemical; details: 6 μM ATP, 3 nM CDK9/CycT1; read-out: CDK9 ATP conc. at Km (IC50)
Method: (§1) Activity of CDK9 was determined in-vitro using a mobility shift assay on a Caliper LC3000 reader (Caliper/PerkinElmer), which measures fluorescence of a phosphorylated and unphosphorylated fluorescent peptide substrate and calculates a ratiometric value to determine percent turnover. Phosphorylation of the peptide in the presence and absence of the compound of interest was determined. Enzyme/substrate/adenosine triphosphate (ATP) mix (3 nM CDK9/CycT1, 6 μM ATP, 1.5 μM CDK9 peptide substrate (FITC-X-GSRTPMY-NH2 (X: epsilon aminocaproic acid)), 50 mM HEPES (pH7.2), 1 mM dithiothreitol, 0.01% tween 20, 50 μg/mL bovine serum albumin, (final assay concentration)) (5 μl) was preincubated with 2 μl of compound for 15 minutes at 25° C. Reactions were initiated with 5 μl of 24 mM MgCl2 (10 mM final assay concentration) in buffer (50 mM HEPES (pH7.2), 1 mM dithiothreitol, 0.01% tween 20, 50 μg/mL bovine serum albumin, (final assay concentration) and incubated at 25° C. for 90 minutes and reactions were stopped by addition of 5 μl of Stop mix consisting of 65 mM HEPES (pH7.2), 35.5 mM EDTA, 0.227% Coatin Reagent 3 (Caliper/PerkinElmer), and 0.003% Tween. Phosphorylated and unphosphorylated substrate was detected by a Caliper LC3000 reader (Caliper/PerkinElmer) in the presence of separation buffer consisting of 100 mM HEPES (pH7.2), 15.8 mM EDTA, 0.1% Coatin Reagent 3 (Caliper/PerkinElmer), 0.015% Brij-35, 5% DMSO, and 5.6 mM MgCl2. CDK9 enzyme was acquired from Carna Biosciences (Catalogue number 04-110), the CDK9 peptide substrate was acquired from Intonation (Boston, Mass.; Custom-made).

CDK9/CycT1 [2] = biological target: T1, CDK9/CycT1; experiment: CDK9 kinase assay, high ATP concentration (5 mM ATP); type: biochemical; details: 1.5 nM CDK9, read-out: CDK9 High ATP conc. (IC50)
Method: as §1
High ATP assays were run the same way with the following modifications: the final assay concentration of CDK9 was 1.5 nM and the final assay concentration of ATP was 5 mM.

[3] = test system: phosphorylation of RNA Polymerase II (RNAPII) at the Ser2 site in MCF7 cells; experiment: MCF7 pSer2 RNAPII MOA assay (immunofluorescence); type: cell-based; details: Homo sapiens, MCF7, 6 h, 6-hr treatment, read-out: p-Ser 2 RNAPII (IC50)
Method: MCF7 pSer2 RNAPII MOA Assay
This is an immunofluorescence assay to determine the effect of CDK9 inhibitors on phosphorylation of RNA Polymerase II (RNAPII) at the Ser2 site in the breast cancer cell line, MCF7. On day one, 2500 MCF7 cells/well were seeded in 30 μl of growth media (RPMI+10% FBS+1% L-Glu+P/S) in 384-well black-wall clear-bottom plates, incubate plates overnight at 37° C. incubator. On the second day, the cells were treated with CDK9 inhibitors (7 point dose response ranging from 3 μM to 0.004 μM) using an ECHO liquid handler (Labcyte). After 6-hr treatment at 37° C. incubator, the cells were fixed with 30 µl/well 7.4% paraformaldehyde for 15 min at room temperature; the cells were washed twice with PBS, then permeabilized with 0.3% Triton X/PBS for 5 min at room temperature. After washing cells with PBS, the cells were incubated with 1:2000 diluted Anti-Ser2 Phospho-RNA pol II antibody (Covance MMS-129R) in 3% FBS/0.1% PBST overnight at 4° C. On the next day, the cells were washed twice with 0.1% PBST, then incubated with 1:1000 diluted Alexa Fluor 488 Goat-anti-mouse antibody (Life Technologies A-11001) and 1:4000 diluted DAPI at room temperature in dark. After one hour incubation, the cells were washed twice with 0.1% PBST, and once with PBS. The plates where sealed and read on an Acumen eX3 microplate cytometer (TTP Labtech) to assess phosphorylation level in each well.

MV411 cells = experiment: MV411 caspase activity assay (Caspase-Glo 3/7); type: cell-based; details: Homo sapiens, MV4-11, 6 h, 6-hr treatment, caspase 3/7 induction
Method: MV411 Caspase Activity Assay
This is a cell assay to measure the induction of caspase activity in the acute myeloid leukemia cell line, MV411 after 6-hr treatment with CDK9 inhibitors. On the first day, 3000 MV411 cells/well were seeded in 50 μl of growth media (IMDM+10% FBS+2% L-Glu+P/S) in 384-well white plates, incubate plates in 37° C. incubator overnight. […] After 6 hour incubation in 37° C. incubator, 25 μl of Caspase-Glo 3/7 reagent (Promega) per well was added into each well, and plates were incubated at room temperature for 30 min in dark. The plates were read on an Infinite M200 microplate reader (Tecan) with a 100 ms integration time.

T1 sequence (P50750 whole entry): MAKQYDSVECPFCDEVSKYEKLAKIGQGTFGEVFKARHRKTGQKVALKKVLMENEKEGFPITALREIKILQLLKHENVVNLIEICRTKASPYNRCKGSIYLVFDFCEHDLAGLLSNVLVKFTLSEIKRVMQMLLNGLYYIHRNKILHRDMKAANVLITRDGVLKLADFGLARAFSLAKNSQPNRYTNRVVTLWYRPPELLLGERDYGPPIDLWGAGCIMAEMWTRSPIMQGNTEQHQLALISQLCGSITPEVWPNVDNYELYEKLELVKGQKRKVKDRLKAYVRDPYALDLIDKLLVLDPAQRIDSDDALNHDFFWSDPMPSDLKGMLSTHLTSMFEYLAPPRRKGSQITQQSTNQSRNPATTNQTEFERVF
T1 sequence (O60563 whole entry partner): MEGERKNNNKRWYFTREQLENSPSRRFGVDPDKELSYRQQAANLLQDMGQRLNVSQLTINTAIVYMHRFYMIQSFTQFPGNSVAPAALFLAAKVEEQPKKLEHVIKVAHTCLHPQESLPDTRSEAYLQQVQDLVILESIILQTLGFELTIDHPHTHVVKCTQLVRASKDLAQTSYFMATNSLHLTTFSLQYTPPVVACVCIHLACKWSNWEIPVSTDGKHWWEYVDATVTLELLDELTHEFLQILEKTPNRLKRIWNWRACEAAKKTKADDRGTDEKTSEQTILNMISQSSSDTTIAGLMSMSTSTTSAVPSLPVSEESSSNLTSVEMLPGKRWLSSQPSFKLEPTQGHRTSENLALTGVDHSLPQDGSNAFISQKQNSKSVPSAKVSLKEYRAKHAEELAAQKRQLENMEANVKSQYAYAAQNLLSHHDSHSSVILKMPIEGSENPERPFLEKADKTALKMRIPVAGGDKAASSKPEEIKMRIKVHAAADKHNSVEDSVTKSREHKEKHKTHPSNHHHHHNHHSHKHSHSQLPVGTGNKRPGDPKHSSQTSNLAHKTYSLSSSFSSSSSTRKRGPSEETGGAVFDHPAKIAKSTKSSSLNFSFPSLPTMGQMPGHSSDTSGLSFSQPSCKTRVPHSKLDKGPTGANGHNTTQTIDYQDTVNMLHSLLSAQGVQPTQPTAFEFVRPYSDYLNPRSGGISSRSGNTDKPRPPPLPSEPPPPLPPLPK

| Structure (SMILES) | IC50 (CDK9/CycT1 [1]) | IC50 (CDK9/CycT1 [2]) | IC50 [3] | IC50 (MV411 cells) |
| --- | --- | --- | --- | --- |
| COC1CCn2ncc(-c3cc(NC(=O)[C@H]4CCC[C@@H](NC(C)=O)C4)ncc3Cl)c2C1 (single isomer, unassigned) [Example 72] | 3 nM | 111 nM | 360 nM | 400 nM |
| O=C(Nc1cc(-c2cnc3n2CCCC3)c(Cl)cn1)[C@@H]1CCCNC1 [Example 1, (R)—N-(5-chloro-4-(5,6,7,8-tetrahydroimidazo[1,2-a]pyridin-3-yl)pyridin-2-yl)piperidine-3-carboxamide] | 49.1 nM | 4500 nM | 1540 nM | 1780 nM |
| O=C(Nc1cc(-c2cnn3c2CCCC3)c(Cl)cn1)[C@H]1C[C@@H](O)C1 [Example 4, Cis-N-(5-chloro-4-(4,5,6,7-tetrahydropyrazolo[1,5-a]pyridin-3-yl)pyridin-2-yl)-3-hydroxycyclobutanecarboxamide] | 3 nM | 170 nM | 220 nM | 280 nM |
| O=C(Nc1cc(-c2cnn3c2CCCC3)c(Cl)cn1)[C@@H]1CCCNC1 [Example 5, (R)—N-(5-chloro-4-(4,5,6,7-tetrahydropyrazolo[1,5-a]pyridin-3-yl)pyridin-2-yl)piperidine-3-carboxamide] | < 4 nM | 270 nM | 260 nM | 160 nM |
| O=C(Nc1cc(-c2cnn3c2CCCC3)ccn1)[C@H]1C[C@@H](O)C1 [Example 6, cis-3-hydroxy-N-(4-(4,5,6,7-tetrahydropyrazolo[1,5-a]pyridin-3-yl)pyridin-2-yl)cyclobutanecarboxamide] | 8 nM | 750 nM | 460 nM | 630 nM |
| CC(=O)N[C@@H]1CCC[C@H](C(=O)Nc2cc(-c3cnc4n3CCCC4)c(Cl)cn2)C1 [Example 7, (1S,3R)-3-acetamido-N-(5-chloro-4-(5,6,7,8-tetrahydroimidazo[1,2-a]pyridin-3-yl)pyridin-2-yl)cyclohexanecarboxamide] | 8 nM | 690 nM | 1450 nM | 1180 nM |
| CC(=O)N[C@@H]1CCC[C@H](C(=O)Nc2cc(-c3cnn4c3CCC4)c(Cl)cn2)C1 [Example 10, (1S,3R)-3-acetamido-N-(5-chloro-4-(5,6-dihydro-4H-pyrrolo[1,2-b]pyrazol-3-yl)pyridin-2-yl)cyclohexanecarboxamide] | 5 nM | 217 nM | 550 nM | 333 nM |
| CC(=O)N[C@@H]1CCC[C@H](C(=O)Nc2cc(-c3cnn4c3COCC4)c(Cl)cn2)C1 [Example 11, (1S,3R)-3-acetamido-N-(5-chloro-4-(6,7-dihydro-4H-pyrazolo[5,1-c][1,4]oxazin-3-yl)pyridin-2-yl)cyclohexanecarboxamide] | 11 nM | 1200 nM | 2700 nM | 1930 nM |

Second part, the molecule after the results:

| IC50 (CDK9/CycT1 [1]) | IC50 (CDK9/CycT1 [2]) | IC50 [3] | IC50 (MV411 cells) | Structure (SMILES) |
| --- | --- | --- | --- | --- |
| < 3 nM | 7 nM | 45 nM | 43 nM | CC(=O)N[C@@H]1CCC[C@H](C(=O)Nc2cc(-c3cnn4c3CC(C)CC4)c(Cl)cn2)C1 (single isomer, unassigned) [Example 64] |
| < 3 nM | 25 nM | 61 nM | 73 nM | CC(=O)N[C@@H]1CCC[C@@H](C(=O)Nc2cc(-c3cnn4c3CC(C)(C)C4)c(F)cn2)C1 (single isomer, unassigned) [Example 83] |
| < 3 nM | 210 nM | 520 nM | 440 nM | CC(=O)N[C@@H]1CCC[C@H](C(=O)Nc2cc(-c3cnn4c3CCCC4)ccn2)C1 [Example 3, (1S,3R)-3-acetamido-N-(4-(4,5,6,7-tetrahydropyrazolo[1,5-a]pyridin-3-yl)pyridin-2-yl)cyclohexanecarboxamide] |
| < 3 nM | 120 nM | 690 nM | 256 nM | CC(=O)N[C@@H]1CCC[C@H](C(=O)Nc2cc(-c3cnn4c3OCCC4)c(Cl)cn2)C1 [Example 8, (1S,3R)-3-acetamido-N-(5-chloro-4-(6,7-dihydro-5H-pyrazolo[5,1-b][1,3]oxazin-3-yl)pyridin-2-yl)cyclohexanecarboxamide] |
